# Patent US20250320194A1, “PHARMACEUTICALLY ACCEPTABLE SALT AND CRYSTAL FORM OF FUSED PYRIDINE RING DERIVATIVE AND PREPARATION METHOD THEREFOR” (Jiangsu Hengrui Pharmaceuticals Co., Ltd., priority 2021, published 2025)
# Experiments:
# HIV-1 capsid protein = target: T1, HIV-1 capsid protein (Human immunodeficiency virus type 1 group M subtype B, UniProt P12493); assay: In vitro polymerization of HIV-1 capsid protein (HTRF, His-CA/GST-CA); type: biochemical, HIV-1 NL4-3
# T1 construct: made in house
# From the text: • 1. MAb Anti GST-Eu cryptate (Cisbio) • 2. MAb Anti 6HIS-XL665 (Cisbio) • 3. His tag HIV-1 capsid protein (hereinafter referred to as His-CA) • 4. GST tag HIV-1 capsid protein (hereinafter referred to as GST-CA) • 5. 384-well unbound surface microplate, white (Corning) • 6. Microplate reader (BMG)
# The HIV-1 capsid proteins aggregate spontaneously in high-salt solutions. Capsid protein derived from HIV-1 NL4-3 strains were separately tagged and expressed with 6His tag and GST tag, and purified. His-CA and GST-CA were mixed at high-salt concentrations, and the level of polymerization of capsid proteins was detected using GST antibody labeled with Eu3+-Cryptate (energy donor) and His antibody labeled with XL665 (energy acceptor). […]
# His-CA was diluted to […] in a clean tube with protein diluent (50 mM Tris-HCl, pH 8.0, 50 mM NaCl, 0.4 mM MgCl2, 0.05% Triton X-100, 2% glycerol) while MAb Anti 6HIS-XL665 at a final concentration of 260 nM was added; GST-CA was diluted to 20 nM with protein diluent in another clean tube while MAb Anti GST-Eu cryptate at a final concentration of 3.33 nM was added and incubated on ice for half an hour. […] After incubation, the samples were excited with an excitation light at 337 nM, and signal values at 620 nM and 665 nM were collected for detection, wherein Ratio values=(665 nM/620 nM signal)*10000 was calculated according to the signal values. EC50 values for compounds were calculated using Graphpad Prism software based on each concentration of the compounds and the corresponding Ratio values.
# [1] = Long-term/accelerated stability; conditions: for physical and chemical stability (conclusion): long-term accelerated stability conditions for 6 months
# [2] = Hygroscopicity of salt crystal forms (DVS, 25° C.); type: physicochemical; conditions: for Hygroscopicity 0.0% RH-95.0% RH / Hygroscopicity 20.0% RH-80.0% RH: DVS, 25° C.; for Crystal form: after DVS
# Method: The test adopts SMS DVS Advantage, at 25° C., with a humidity range of 0 to 95% and a step of 10%. The judgment standard is that the dM/dT of each gradient mass change is less than 0.002%, TMAX is 360 minutes, and the cycle is two times. • 5. Cation chromatography • Instrument model: DIONEX AQUION ion chromatograph, USA • Detection method: conductivity; separation column: IonPac CS16-CG16 • Eluent: MSA 20Mm • Flow rate: 1.0 ml/min • 6. Anion chromatography • Instrument model: DIONEX INTEGRION HPIC ion chromatograph, USA • Detection method: conductivity; separation column: DionexIonPac™-AS11-HC • Eluent: EGC-500-KOH • Flow rate: 1.5 ml/min
# Using Surface Measurement Systems advantage, at 25° C., the humidity starts from 50%, the humidity range is 0% to 95%, the step is 10%. The judgment standard was that the dM/dT of each gradient mass change is less than 0.002%, TMAX360 min, and the cycle was two times. The hygroscopicity of different salt crystal forms of the compound of formula I was investigated respectively.
# [3] = Stability under influencing factors (high temperature, high humidity, open, 30 days)
compound,measurement,setting,value
"CC(C)(C#Cc1nc([C@H](Cc2cc(F)cc(F)c2)NC(=O)Cn2nc(C(F)(F)F)c3c2C(F)(F)[C@@H]2C[C@H]32)c(-c2ccc(Cl)c3c(NS(C)(=O)=O)nn(CC(F)(F)F)c23)c2c1CCC2)S(C)(=O)=O (atropisomer, axis not shown; (aR)) [The compound of formula (I), N—((S)-1-((R)-4-(4-chloro-3-(methanesulfonamide)-1-(2,2,2-trifluoroethyl)-1H-indazol-7-yl)-1-(3-methyl-3-(methylsulfonyl)but-1-yn-1-yl)-6,7-dihydro-5H-cyclopenta[c]pyridin-3-yl)-2-(3,5-difluorophenyl)ethyl)-2-((3bS,4aR)-5,5-difluoro-3-(trifluoromethyl)-3b,4,4a,5-tetrahydro-1H-cyclopropa[3,4]cyclopenta[1,2-c]pyrazol-1-yl)acetamide]",EC50,HIV-1 capsid protein,9 nM
same,Emax,HIV-1 capsid protein,100%
same,inhibition effect on the polymerization of HIV-1 capsid proteins,HIV-1 capsid protein; conclusion in words,significant inhibition effect
CC(C)(C#Cc1nc(C(Cc2cc(F)cc(F)c2)NC(=O)Cn2nc(C(F)(F)F)c3c2C(F)(F)C2CC32)c(-c2ccc(Cl)c3c(NS(C)(=O)=O)nn(CC(F)(F)F)c23)c2c1CCC2)S(C)(=O)=O.O=S(=O)(O)O (centres unmarked) [Crystal form A of hydrosulfate],Purity %,"[1]; 4° C., 1 month",99.09%
same,Purity %,"[1]; 4° C., 2 months",99.08%
same,Purity %,"[1]; 4° C., 3 months",99.08%
same,Purity %,"[1]; 4° C., 6 months",99.09%
same,Purity %,"[1]; 4° C., Start",99.09%
same,Purity %,"[1]; 25° C., 60% RH, 1 month",99.01%
same,Purity %,"[1]; 25° C., 60% RH, 2 months",98.99%
same,Purity %,"[1]; 25° C., 60% RH, 3 months",99.03%
same,Purity %,"[1]; 25° C., 60% RH, 6 months",98.91%
same,Purity %,"[1]; 25° C., 60% RH, Start",99.09%
same,Purity %,"[1]; 40° C., 75% RH, 1 month",98.83%
same,Purity %,"[1]; 40° C., 75% RH, 2 months",98.99%
same,Purity %,"[1]; 40° C., 75% RH, 3 months",98.98%
same,Purity %,"[1]; 40° C., 75% RH, 6 months",98.76%
same,Purity %,"[1]; 40° C., 75% RH, Start",99.09%
same,physical and chemical stability (conclusion),[1],good physical and chemical stability
same,Hygroscopicity 0.0% RH-95.0% RH,[2],4.55%
same,Hygroscopicity 20.0% RH-80.0% RH,[2],1.59%
same,Crystal form,[2],Unchanged
same,physical stability (conclusion),"[3]; 40° C., 60° C., 7500 RH and 92.5% RH, crystal form not transformed",good physical stability
same,chemical stability (conclusion),"[3]; 40° C., 7500 RH and 92.5%0 RH, not at high temperature (60° C.)",good chemical stability
same,"Color, properties","[3]; 40° C., 5 days",White solid
same,Crystal form,"[3]; 40° C., 5 days",Unchanged
same,Purity %,"[3]; 40° C., 5 days",99.06%
same,"Color, properties","[3]; 40° C., 10 days",White solid
same,Crystal form,"[3]; 40° C., 10 days",Unchanged
same,Purity %,"[3]; 40° C., 10 days",99.01%
same,"Color, properties","[3]; 40° C., 30 days",White solid
same,Crystal form,"[3]; 40° C., 30 days",Unchanged
same,Purity %,"[3]; 40° C., 30 days",99.03%
same,"Color, properties","[3]; 60° C., 5 days",White solid
same,Crystal form,"[3]; 60° C., 5 days",Unchanged
same,Purity %,"[3]; 60° C., 5 days",96.46%
same,"Color, properties","[3]; 60° C., 10 days",White solid
same,Crystal form,"[3]; 60° C., 10 days",Unchanged
same,Purity %,"[3]; 60° C., 10 days",96.22%
same,"Color, properties","[3]; 60° C., 30 days",White solid
same,Crystal form,"[3]; 60° C., 30 days",Unchanged
same,Purity %,"[3]; 60° C., 30 days",95.17%
same,"Color, properties","[3]; 75% RH, 5 days",White solid
same,Crystal form,"[3]; 75% RH, 5 days",Unchanged
same,Purity %,"[3]; 75% RH, 5 days",99.11%
same,"Color, properties","[3]; 75% RH, 10 days",White solid
same,Crystal form,"[3]; 75% RH, 10 days",Unchanged
same,Purity %,"[3]; 75% RH, 10 days",99.11%
same,"Color, properties","[3]; 75% RH, 30 days",White solid
same,Crystal form,"[3]; 75% RH, 30 days",Unchanged
same,Purity %,"[3]; 75% RH, 30 days",99.05%
same,"Color, properties","[3]; 92.5% RH, 5 days",White solid
same,Crystal form,"[3]; 92.5% RH, 5 days",Unchanged
same,Purity %,"[3]; 92.5% RH, 5 days",99.18%
same,"Color, properties","[3]; 92.5% RH, 10 days",White solid
same,Crystal form,"[3]; 92.5% RH, 10 days",Unchanged
same,Purity %,"[3]; 92.5% RH, 10 days",99.02%
same,"Color, properties","[3]; 92.5% RH, 30 days",White solid
same,Crystal form,"[3]; 92.5% RH, 30 days",Unchanged
same,Purity %,"[3]; 92.5% RH, 30 days",99.07%
same,"Color, properties","[3]; Start, 0 days",White solid
same,Purity %,"[3]; Start, 0 days",99.09%
CC(C)(C#Cc1nc(C(Cc2cc(F)cc(F)c2)NC(=O)Cn2nc(C(F)(F)F)c3c2C(F)(F)C2CC32)c(-c2ccc(Cl)c3c([N-]S(C)(=O)=O)nn(CC(F)(F)F)c23)c2c1CCC2)S(C)(=O)=O.[Na+] (centres unmarked) [Crystal form III of the sodium salt],Purity %,"[1]; 4° C., 1 month",98.25%
same,Purity %,"[1]; 4° C., 2 months",98.26%
same,Purity %,"[1]; 4° C., 3 months",98.24%
same,Purity %,"[1]; 4° C., 6 months",98.28%
same,Purity %,"[1]; 4° C., Start",98.32%
same,physical and chemical stability (conclusion),[1],good physical and chemical stability
same,Hygroscopicity 0.0% RH-95.0% RH,[2],2.04%
same,Hygroscopicity 20.0% RH-80.0% RH,[2],0.73%
same,Crystal form,[2],Unchanged
same,physical and chemical stability (conclusion),"[3]; 40° C., 60° C., 75% RH and 92.5% RH",good physical and chemical stability
same,"Color, properties","[3]; 40° C., 5 days",White solid
same,Crystal form,"[3]; 40° C., 5 days",Unchanged
same,Purity %,"[3]; 40° C., 5 days",97.98%
same,"Color, properties","[3]; 40° C., 10 days",White solid
same,Crystal form,"[3]; 40° C., 10 days",Unchanged
same,Purity %,"[3]; 40° C., 10 days",98.10%
same,"Color, properties","[3]; 40° C., 30 days",White solid
same,Crystal form,"[3]; 40° C., 30 days",Unchanged
same,Purity %,"[3]; 40° C., 30 days",98.06%
same,"Color, properties","[3]; 60° C., 5 days",White solid
same,Crystal form,"[3]; 60° C., 5 days",Unchanged
same,Purity %,"[3]; 60° C., 5 days",98.05%
same,"Color, properties","[3]; 60° C., 10 days",White solid
same,Crystal form,"[3]; 60° C., 10 days",Unchanged
same,Purity %,"[3]; 60° C., 10 days",98.08%
same,"Color, properties","[3]; 60° C., 30 days",White solid
same,Crystal form,"[3]; 60° C., 30 days",Unchanged
same,Purity %,"[3]; 60° C., 30 days",97.99%
same,"Color, properties","[3]; 75% RH, 5 days",White solid
same,Crystal form,"[3]; 75% RH, 5 days",Unchanged
same,Purity %,"[3]; 75% RH, 5 days",98.08%
same,"Color, properties","[3]; 75% RH, 10 days",White solid
same,Crystal form,"[3]; 75% RH, 10 days",Unchanged
same,Purity %,"[3]; 75% RH, 10 days",98.10%
same,"Color, properties","[3]; 75% RH, 30 days",White solid
same,Crystal form,"[3]; 75% RH, 30 days",Unchanged
same,Purity %,"[3]; 75% RH, 30 days",98.00%
same,"Color, properties","[3]; 92.5% RH, 5 days",White solid
same,Crystal form,"[3]; 92.5% RH, 5 days",Unchanged
same,Purity %,"[3]; 92.5% RH, 5 days",97.94%
same,"Color, properties","[3]; 92.5% RH, 10 days",White solid
same,Crystal form,"[3]; 92.5% RH, 10 days",Unchanged
same,Purity %,"[3]; 92.5% RH, 10 days",97.94%
same,"Color, properties","[3]; 92.5% RH, 30 days",White solid
same,Crystal form,"[3]; 92.5% RH, 30 days",Unchanged
same,Purity %,"[3]; 92.5% RH, 30 days",97.89%
same,"Color, properties","[3]; Start, 0 days",White solid
same,Purity %,"[3]; Start, 0 days",98.23%
